Drawing on a melting point compilation (Tetko et al.; mined from patent text by program, amines drawn as free bases though some values may be those of a salt), this text covers melting point for 88 compounds.

Structures are written as SMILES. Where only a bound is given, the exact number is not on record here.

Take `O=C(Nc1ccc2ccc(-c3ccc(F)cc3)nc2n1)c1ccc(C(F)(F)F)cc1`: the melting point (in general, the temperature, or range, at which the solid turns liquid) is 198 °C.
As for `CC(NC(=O)C1C(O)N(Cc2ccccc2)C(=O)N1Cc1ccccc1)c1cccs1` (stereo not drawn), the figure is 108 to 129 °C; as for `COc1ccc(NCCCOc2ccc3ccc(OCCCNc4ccc(OC)cc4)cc3c2)cc1`, 127 °C; as for `COc1cc(CN)nc(SC)n1`, 35 to 38 °C.
The value for `CCn1c(=O)n(CCCCC(C)(O)CC)c(=O)c2c1ncn2Cc1ccccc1` (stereo not drawn) was 93 to 94 °C; that for `O=C(c1ccc(Cl)cc1)C(Cc1nc[nH]n1)c1ccc(Cl)cc1Cl` (stereo not drawn) was 109 to 111 °C; that for `CC(C)c1cc(C(C)C)c(CC(=O)NS(=O)(=O)Oc2c(C(C)C)cc(NCCO)cc2C(C)C)c(C(C)C)c1` was 149 to 152 °C.
The compound `O=C(Nc1ccc2[nH]ccc2c1)c1ccc(F)cc1` returned a melting point of 205 to 207 °C.
The value for `Cc1nc(-c2cccc3ccccc23)n2cn[nH]c(=O)c12` was 261 to 263 °C; that for `COc1cc(C(=O)N2CCC(CCN3CCC(Nc4nc5ccccc5n4Cc4ccccn4)CC3)(c3ccc(F)c(F)c3)C2)cc(OC)c1OC` (stereo not drawn) was 101 to 107 °C; that for `Cc1nn2c(C(F)(F)F)cc(-c3ccc(C(F)(F)F)cc3)nc2c1C#N` was 184 °C.
The value for `COc1ccc2nc(-c3cc(C)c(OCCN4CCCC4)c(C)c3)[nH]c(=O)c2c1` was 201 to 203 °C.
Compound `O=S(=O)(NCCCO)c1ccc(Nc2nccc(-c3ccc(C(F)(F)F)cc3)n2)cc1` showed a melting point of 204 to 205 °C.
The value for `Cc1[nH]c2c(Cl)cc(Nc3cnccc3N)cc2c1C` was 108 to 110 °C; that for `C(=C\c1cc(/C=C/c2c[nH]c3ccccc23)n[nH]1)/c1cccc(OCc2ccccn2)c1` was 198 to 201 °C; that for `Cc1nc(Sc2cccc(C(=O)O)n2)sc1CC(=O)O` was 211 to 213 °C.
As for `Clc1ccc(N2CCN(c3ccccn3)CC2)nn1`, the figure is 195 °C; as for `N#CC(=Cc1cccnc1)c1cc(Cl)cc(Cl)c1`, 139 to 141 °C.
The value for `C=CCNCC(COc1cccc2c1CC(=O)N2)OC(=O)C12CC3CC(CC(C3)C1)C2` (stereo not drawn) was 170 to 172 °C.
As for `CCCN(c1cc(C)ccn1)c1cccc2c1OC[C@H]2Nc1ccc2c(c1)OC[C@H]2CC(=O)O`, the melting point stood at 146 °C.
As for `CCOC(=O)c1ccc(N)cc1O`, the figure is 113 to 115 °C; as for `COc1c(N2CC(C)C(NC3CC3)C(C)C2)c(F)c(N)c2c(=O)c(C(=O)O)cn(C3CC3)c12` (stereo not drawn), 248 °C; as for `CC(C)N1C(=O)c2cnc(-c3ccccc3)nc2N(C(=O)CN2CCN(C)CC2)c2ccccc21`, 168 to 170 °C.
The value for `O=C1CC(c2cccc(-n3ccnc3)c2)=Nc2cc(CO)c(C#Cc3ccccc3)cc2N1` was 227 °C; that for `COc1ccc(C)cc1NC(=O)Nc1ccc(N2CCN(C(=O)Nc3ccc(CO)cc3C)CC2)cc1` was 138 to 141 °C.
The value for `COC(=O)C1(CC#N)C(=O)N(C)C(=O)c2ccccc21` (stereo not drawn) was 120 to 122 °C; that for `Cc1ccn(-c2ccc(S(N)(=O)=O)cc2)c1-c1ccc(F)cc1` was 187 to 188 °C.
On to `Cn1c(-c2ccc(Cl)c(S(N)(=O)=O)c2)csc1=Nc1ccccc1`, for which the melting point lay within 168 to 171 °C.
The value for `COc1ccc(-c2nc3cccc(C(N)=O)c3[nH]2)cc1` was 261 to 263 °C; that for `O=C(O)c1ccc(-c2nnn[nH]2)cc1Sc1ccccc1` was 239 to 240 °C.
As for `CC(C)(CO)NS(=O)(=O)c1cc(NC(=O)c2cnn3c(C4CC4)cc(-c4ccc(Cl)cc4)nc23)c(Cl)s1`, the figure is 238 to 241 °C; as for `O=c1c2ccccc2oc2c(CBr)cccc12`, 191 to 192 °C.
As for `Cc1cc(C)cc(CC(=O)c2ccncc2)c1`, the figure is 96 to 97 °C; as for `O=C(O)C(=O)c1ccoc1`, 94.2 °C; as for `Cc1cc(=O)c2ccccc2o1`, 71 °C.
Compound `O=C(c1ccc(F)cc1)N1Cc2c(-c3ccc(F)cc3)ncn2-c2ccccc21` had a melting point of 230 to 231 °C.
As for `CC(C)(C)C(=O)c1[nH]c2cc(Cl)ccc2c1N`, the figure is 132 to 134 °C; as for `Cc1cc2[nH]c3cc(Cl)ncc3c(=O)n2n1`, above 300 °C.
The value for `O=C(O)C(Cc1ccccc1)Oc1ccc2cc(-c3csc(-c4ccccc4)n3)ccc2c1` (stereo not drawn) was 154 to 160 °C; that for `CN(Cc1cc2c(=O)c(C(=O)NCc3ccc(Cl)cc3)cn(C)c2s1)CC(O)c1ccc(O)cc1` (stereo not drawn) was 134 to 143 °C; that for `O=C(O)CCCC(=O)c1cn(-c2cccnc2)c2ccccc12` was 177 to 178 °C.
As for `COc1cc(C2CCCCC2)c(Cl)cc1CCO`, the figure is 78 to 79 °C.
The compound `CN1CCC(C2(O)c3ccccc3Oc3ccc(C(F)(F)F)cc32)CC1` (stereo not drawn) yielded a melting point of 179 to 183 °C.
As for `COC(=O)NCCCn1c(-c2ccc(OC)cc2)csc1=Nc1ccccc1`, the figure is 106 to 108 °C; as for `CCN(C)c1nsc(NC(=O)NC)c1C#N`, 175 °C.
As for `O=C(C=P(c1ccccc1)(c1ccccc1)c1ccccc1)CCCc1ccccc1`, the figure is 93 to 95 °C; as for `CC(C)(C)c1cc(C=C2SC(=S)NC2=O)cc(C(C)(C)C)c1O`, 260 °C.
The value for `CCCc1c(OCCCOc2ccc(Cl)c3ccccc23)ccc2c1OC(CCC(=O)O)(CCC(=O)O)CC2=O` was 170 to 171 °C; that for `CC[C@H]1COC(=O)N1c1nc(-c2ccc(C#N)cc2)c(C#N)s1` was 201 to 203 °C; that for `CNc1nc(Nc2ccc(Cl)c(Cl)c2)ncc1NS(C)(=O)=O` was 263 to 266 °C.
In turn, `CCCCNC(=O)Cc1ccc(O)c(C2CCCCC2)c1` had a melting point of 118 to 120 °C.
`CNC(=S)NCCCSc1nccs1` registered a melting point of 67 to 68 °C.
The value for `NC(=O)c1cccc(-c2nc(=O)c3ccccc3s2)n1` was 295 °C.
The value for `CCCN(CCC)C(=O)C(CO)Nc1nc(-c2ccccc2)nc(C)c1C` (stereo not drawn) was 132 to 133 °C; that for `COC(=O)C(Sc1nnnn1-c1ccccc1)N1C(=O)c2ccccc2S1(=O)=O` (stereo not drawn) was 160 to 162 °C; that for `N#Cc1cccc2c(N)c([N+](=O)[O-])ccc12` was 260 to 262 °C.
On to `Cc1nc2c(Br)cccc2c(=O)n1C1CCC(=O)NC1=O` (stereo not drawn), for which the melting point fell in the range of 307 to 309 °C.
As to `Cc1occ2c1-c1ccccc1C(=C1CCN(C)CC1)c1ccccc1-2`, the melting point lay within 80 to 86 °C.
The value for `COc1ccc(-c2cc(-c3ccccc3)c(-c3ccccc3)s2)c(OC)c1` was 107 to 110 °C; that for `CCS(=O)CCC(=O)NNC(=O)N1Cc2ccccc2Oc2ccc(Cl)cc21` (stereo not drawn) was 185 to 188 °C; that for `CC1(C)CC(=C(c2ccc(O)cc2)c2ccc(OCCO)cc2)CC(C)(C)C1` was 154 to 155 °C.
For the compound `CC(C)N(CCOC1CCCC2Oc3ccccc3OC12)C(C)C` (stereo not drawn), the melting point came out at 63.4 °C.
The value for `Cc1cc(OCC(=O)NCCO[N+](=O)[O-])no1` was 93 to 94 °C.
As for `O=C1c2ccccc2C(=O)N1CCOc1cc(F)ccc1O`, the figure is 172 °C.
As for `COc1cccc(CC(=O)Nc2cc(Cl)c(Cl)cc2[N+](=O)[O-])c1`, the figure is 122 to 124 °C; as for `O=S(=O)(c1ccc(Cl)cc1)C(c1cc(F)ccc1F)C(O)CCCCO` (stereo not drawn), 105 to 107 °C.
In turn, `COc1ccc(-c2nc3ccccc3nc2-c2ccc(OC)cc2)cc1` displayed a melting point of 148 °C.
Compound `CCCCN1C(=O)[C@@H]2[C@H](C1=O)[C@H](c1ccc(C#N)cc1)N(C(C)=O)[C@H]2C` (racemic) came in with a melting point of 140 to 141 °C.
The value for `CN1CC(CCCCN2CCN(c3ccccc3)CC2)OC1=O` (stereo not drawn) was 85 to 88 °C.
As for `O=C(Nc1cc(-c2nc(-c3ccccc3)c[nH]2)ccn1)c1ccccc1`, the figure is 265 to 267 °C; as for `CN(C)c1ccc(C(=O)C(C)(C)N(C)C)cc1`, 89 to 91 °C; as for `COc1ccc(-c2[nH]nc3c2C(=O)c2c(NC(=O)Cc4ccc(Cl)c(Cl)c4)cccc2-3)cc1`, 299 °C.
The value for `COc1cc(Nc2c(C#N)cnc3cc(-c4ccc(CN(CCO)CCO)o4)ccc23)c(Cl)cc1Cl` was 155 to 160 °C.
`CN(C)C1(C(N)=O)CCCCC1` yielded a melting point of 65 to 69 °C.
As for `CSc1ccc(C=C(C(=O)O)c2ccc(F)cc2)cc1`, the figure is 136 to 138 °C; as for `O=C1/C(=C/c2ccccc2)C(Br)c2ccccc21` (stereo not drawn), 118 to 119 °C; as for `CCOC(=O)COc1ccc(C2C(C(=O)OCC)=C(C)N(C)C(C)=C2C(=O)OCC)cc1OC`, 84 to 85 °C.
The value for `COc1ccc(C(C#Cc2ccccc2)CC(=O)N(C)C)cc1OC1CCCC1` (racemic) was 87 to 89 °C; that for `N#Cc1ccc(C(Cc2ccc(C#N)cn2)Cn2cncn2)cc1` (stereo not drawn) was 98 °C; that for `CC(=O)c1ccc2nc(-n3ccnc3)nc(NCCOCCO)c2c1` was 164 to 166 °C.
As for `CCN(c1ccc(C(=O)c2ccccc2)cc1N)C1CCCCC1`, the figure is 106 to 108 °C; as for `Nc1ccc(C(=O)c2ccccc2)c(Br)c1`, 157 to 160 °C.
`CC(C)(C)NCC(O)COc1ccc2oc(-c3ccc(OCc4ccccc4)c(OCc4ccccc4)c3)cc(=O)c2c1` (stereo not drawn): the melting point was 156 to 157 °C.
As for `O=C(Nc1nccs1)c1cccc(-c2ccc3c(c2)C(Nc2ccc(Cl)cc2Cl)CO3)c1` (stereo not drawn), the figure is 221 to 222 °C; as for `COc1ccc(CC=[N+]([O-])C(C)(C)C)cc1`, 90 to 91 °C; as for `Cc1cc(C2=NN=C(C=NNC(N)=O)Cc3cc4c(cc32)OCO4)ccc1[N+](=O)[O-]`, 260 to 264 °C.
Regarding `CO[C@@]1(C)[C@@H](NC(=O)C(F)(F)F)CC(OC(=O)c2ccc([N+](=O)[O-])cc2)O[C@H]1C` (stereo partly drawn), the melting point lay in the range of 180 to 181 °C.
The value for `O=S(=O)(c1ccccc1)n1ccc2c(Cl)nc(-c3ccccc3)nc21` was 259 to 260 °C.
